Results published in ChEMBL document CHEMBL1146110, “QSAR study on topically acting sulfonamides incorporating GABA moieties: a molecular connectivity approach” (Bioorg Med Chem Lett, 2006).

Experiments:
Carbonic anhydrase 1 = Carbonic anhydrase 1 (Homo sapiens, UniProt P00915)
Carbonic anhydrase 4 = target: T1, Carbonic anhydrase 4 (Bos taurus, UniProt Q95323)
T1 sequence (Q95323 whole entry): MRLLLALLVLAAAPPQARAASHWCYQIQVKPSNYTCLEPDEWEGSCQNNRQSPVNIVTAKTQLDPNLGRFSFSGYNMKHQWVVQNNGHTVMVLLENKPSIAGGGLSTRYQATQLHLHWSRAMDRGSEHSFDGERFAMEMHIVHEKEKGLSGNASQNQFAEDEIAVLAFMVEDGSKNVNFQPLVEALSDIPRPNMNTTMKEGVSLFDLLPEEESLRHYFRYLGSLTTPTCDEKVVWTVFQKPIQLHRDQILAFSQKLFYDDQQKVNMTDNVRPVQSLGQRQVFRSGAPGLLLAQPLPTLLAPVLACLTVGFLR

Sequence of Carbonic anhydrase 1 (P00915 whole entry): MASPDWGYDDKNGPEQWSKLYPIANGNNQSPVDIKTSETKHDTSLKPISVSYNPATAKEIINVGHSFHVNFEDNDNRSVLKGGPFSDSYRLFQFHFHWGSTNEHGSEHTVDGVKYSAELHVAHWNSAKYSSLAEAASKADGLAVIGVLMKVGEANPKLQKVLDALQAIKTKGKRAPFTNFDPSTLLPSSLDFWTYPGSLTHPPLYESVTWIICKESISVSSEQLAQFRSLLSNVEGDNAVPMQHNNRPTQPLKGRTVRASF

| SMILES | Ki (Carbonic anhydrase 1) | Ki (Carbonic anhydrase 4) |
| --- | --- | --- |
| NCCCC(=O)OCc1ccc(S(N)(=O)=O)cc1 | 1750 nM | 180 nM |
| NCCCC(=O)Nc1ccccc1S(N)(=O)=O | 20000 nM | 243 nM |
| NCCCC(=O)Nc1cccc(S(N)(=O)=O)c1 | 17200 nM | 215 nM |
| Cn1nc(S(N)(=O)=O)s/c1=N/S(=O)(=O)c1ccc(N)cc1 | 9 nM | 8 nM |
| NCCCC(=O)Nc1ccc(S(N)(=O)=O)cc1 | 15200 nM | 164 nM |
| CCN(C(=O)CCCN)C1CC(C)S(=O)(=O)c2sc(S(N)(=O)=O)cc21 (stereo not drawn) | 56 nM | 32 nM |
| NCCCC(=O)NCCc1ccc(S(N)(=O)=O)cc1 |  | 62 nM |
| NCCCC(=O)Nc1ccc(S(=O)(=O)Nc2ccc(S(N)(=O)=O)cc2)cc1 | 63 nM | 75 nM |
| NCCCC(=O)Nc1ccc(S(N)(=O)=O)cc1I | 500 nM | 56 nM |
| NCCCC(=O)Nc1ccc(S(N)(=O)=O)cc1F | 530 nM | 38 nM |
| NCCCC(=O)OCCOc1ccc2nc(S(N)(=O)=O)sc2c1 | 10 nM | 11 nM |

Further lines, results first:

| Ki (Carbonic anhydrase 1) | Ki (Carbonic anhydrase 4) | SMILES |
| --- | --- | --- |
| 14 nM | 12 nM | NCCCC(=O)Nc1ccc2nc(S(N)(=O)=O)sc2c1 |
| 450 nM | 50 nM | NCCCC(=O)Nc1c(S(N)(=O)=O)cc(S(N)(=O)=O)c(Cl)c1Cl |
| 520 nM | 60 nM | NCCCC(=O)Nc1ccc(S(N)(=O)=O)cc1Br |
| 24 nM | 15 nM | NCCCC(=O)NCCC(=O)Nc1nnc(S(N)(=O)=O)s1 |
| 560 nM | 63 nM | NCCCC(=O)Nc1ccc(S(N)(=O)=O)cc1Cl |
| 61 nM | 67 nM | NCCCC(=O)Nc1ccc(S(=O)(=O)Nc2cccc(S(N)(=O)=O)c2)cc1 |
| 300 nM | 43 nM | NCCCC(=O)Nc1nnc(S(N)(=O)=O)s1 |
| 310 nM | 42 nM | Cn1nc(S(N)(=O)=O)s/c1=N\C(=O)CCCN |
| 22500 nM | 305 nM | NCCCC(=O)NNc1ccc(S(N)(=O)=O)cc1 |
|  | 5 nM | NS(=O)(=O)c1ccc(CCO)cc1 |
| 51 nM | 50 nM | NCCCC(=O)Nc1nccc(Nc2ccc(S(N)(=O)=O)cc2)n1 |
| 15 nM |  | Cn1nc(S(N)(=O)=O)s/c1=N/S(=O)(=O)c1ccc(NC(=O)CCCN)cc1 |
| 350 nM | 50 nM | NCCCC(=O)Nc1cc(Cl)c(S(N)(=O)=O)cc1S(N)(=O)=O |
|  | 69 nM | NCCCC(=O)NCc1ccc(S(N)(=O)=O)cc1 |
| 15 nM | 12 nM | NCCCC(=O)Oc1ccc2nc(S(N)(=O)=O)sc2c1 |
